System: VEGF
Test: Immunohistochemistry of VEGF in respiratory tract tissue of sodium hypochlorite aerosol-treated rabbits
Type: in vivo, New Zealand albino rabbits
From the text: It is known that the factors TGF-α, TGF-β 1, TGF-β 2, TGF-β 3, SPARC, MMP-3; MMP-7, MMP-9, MMP-11, MMP-13 and MMP-14, TGF-β, NF-kB, EGF, MMP-9, VEGF and TNF-α which are produced by lung cells (pneumocytes, fibroblasts and vascular endothelial cells) and inflammatory cells (macrophages, lymphocytes and polymorphonuclear leukocytes) are involved in the pathophysiology and development of said respiratory tract diseases. […] Herein, 27 New Zealand albino rabbits (New Zealand White Rabbit) with an initial average weight about 3 kg were used in this example. All subjects were administered an aerosol of a solution consisting of a mixture of water and sodium hypochlorite (35 g sodium hypochlorite per liter of water) at a rate of 5 mL of said solution by inhalation three times a day for 7 days (days 1 to 7 of experimentation). Subsequently, from days 3 to 7, a group of 3 rabbits (Group 1) was administered an oral dose of 10 mg/kg body weight per day, another group of 3 rabbits (Group 2) was administered an oral dose of 40 mg/kg body weight per day, a third group (Group 3) was administered an oral dose of 80 mg/kg body weight per day and a fourth group (Group 4) was administered an oral dose of 100 mg/kg body weight per day. […] This mixture was administered as an aerosol by inhalation, also from days 3 to 7, to a group of 3 rabbits (group 5) at a dose of 0.05 mg/kg body weight per day, to another group of three rabbits (Group 6) at a dose of 0.1 mg/kg body weight per day, to another group of three rabbits (Group 7) at a dose of 0.2 mg/kg body weight per day and to another group of three rabbits (Group 8) at a dose of 0.4 mg/kg body weight per day. A placebo consisting only of olive oil was administered from days 3 to 7 to a control group of 3 rabbits (placebo group). In parallel, 3 rabbits were kept under identical conditions but were not administered any treatment nor the aforementioned sodium hypochlorite solution (control group). […] On day 7 of the experiment all animals were euthanized and necropsied. […] Samples were taken at the peripheral level of the lung parenchyma, just below the pleural surface. Tissue samples were also taken from the nasal cavity, pharynx, larynx and bronchi. Immunohistochemistry studies were performed for all samples to evaluate the levels of the markers TGF-α, TGF-β 1, TGF-β 2, TGF-β 3 SPARC, MMP-3; MMP-7, MMP-9, MMP-11, MMP-14, TGF-β, TNF-α and VEGF. In said immunohistochemistry studies, a sample of each sample was dehydrated by treatment with increasing concentrations of ethanol and finally xylene. Subsequently said dried samples were embedded in paraffin, thus creating a block. Said paraffin blocks were cut on a microtome to a thickness of 5 μm, and the resulting sections (slices) were placed on slides suitable for conducting immunohistochemistry techniques. Subsequently, the sections were deparaffinised by immersion in xylene and then rehydrated through immersion in a series of solutions containing decreasing concentrations of ethanol and, finally, water. […] The samples were then allowed to cool to room temperature over 10 minutes. Endogenous peroxidase activity was blocked by treatment with 3% hydrogen peroxide over 30 min at room temperature. […] In order to verify the expression of NK1 receptors, the cell samples were incubated in the presence of anti-NK1 antibodies ([…], Sigma-Aldrich) diluted 1:1000 at 4° C. overnight. After this time they were washed in 0.05M Tris buffer at room temperature. Subsequently, Envision System-HRP (Dako) reagents were added for 30 min at room temperature. Once this time had expired, the samples were again washed with 0.05 M Tris buffer, and immunoreactivity was visualized by light microscopy with a chromogenic solution with 3,3'-diaminobenzidine (DAB+; Dako, USA). In order to differentiate the cell nuclei, these were lightly stained with haematoxylin. Samples that were not incubated with the primary antibody, but wherein this was replaced by a non-immune serum were used as negative controls. […]

SMILES: C[C@@H](OC1OCCN(Cc2nc(=O)[nH][nH]2)C1c1ccc(F)cc1)c1cc(C(F)(F)F)cc(C(F)(F)F)c1 (stereo in doubt) [Aprepitant, 5-([(2R,3S)-2-((R)-1-[3,5-bis(trifluoromethyl)phenyl]ethoxy)-3-(4-fluorophenyl)morpholino]methyl)-1H-1,2,4-triazol-3(2H)-one]
- Percent increase in VEGF with respect to the control group (bronchial tissue, Group 1, oral 10 mg/kg per day): 457.34%
- Percent increase in VEGF with respect to the control group (bronchial tissue, Group 2, oral 40 mg/kg per day): 356.45%
- Percent increase in VEGF with respect to the control group (bronchial tissue, Group 3, oral 80 mg/kg per day): 256.34%
- Percent increase in VEGF with respect to the control group (bronchial tissue, Group 4, oral 100 mg/kg per day): 203.56%
- % Med G5/C: percent increase in marker VEGF with respect to the control group (bronchial tissue, Group 5): 324.53%
- % Med G6/C: percent increase in marker VEGF with respect to the control group (bronchial tissue, Group 6): 235.71%
- % Med G7/C: percent increase in marker VEGF with respect to the control group (bronchial tissue, Group 7): 153.57%
- % Med G8/C: percent increase in marker VEGF with respect to the control group (bronchial tissue, Group 8): 112.71%
- Percent increase in VEGF with respect to the control group (laryngeal tissue, Group 1, oral 10 mg/kg per day): 1,134.34%
- Percent increase in VEGF with respect to the control group (laryngeal tissue, Group 2, oral 40 mg/kg per day): 980.54%
- Percent increase in VEGF with respect to the control group (laryngeal tissue, Group 3, oral 80 mg/kg per day): 875.80%
- Percent increase in VEGF with respect to the control group (laryngeal tissue, Group 4, oral 100 mg/kg per day): 667.82%
- Percent increase in VEGF with respect to the control group (laryngeal tissue, Group 5, inhalation 0.05 mg/kg per day): 950.34%
- Percent increase in VEGF with respect to the control group (laryngeal tissue, Group 6, inhalation 0.1 mg/kg per day): 670.32%
- Percent increase in VEGF with respect to the control group (laryngeal tissue, Group 7, inhalation 0.2 mg/kg per day): 570.12%
- Percent increase in VEGF with respect to the control group (laryngeal tissue, Group 8, inhalation 0.4 mg/kg per day): 250.21%
- Percent increase in VEGF with respect to the control group (lung tissue, Group 1, oral 10 mg/kg per day): 655.77%
- Percent increase in VEGF with respect to the control group (lung tissue, Group 2, oral 40 mg/kg per day): 512.28%
- Percent increase in VEGF with respect to the control group (lung tissue, Group 3, oral 80 mg/kg per day): 458.30%
- Percent increase in VEGF with respect to the control group (lung tissue, Group 4, oral 100 mg/kg per day): 342.93%
- Percent increase in VEGF with respect to the control group (lung tissue, Group 5, inhalation 0.05 mg/kg per day): 575.62%
- Percent increase in VEGF with respect to the control group (lung tissue, Group 6, inhalation 0.1 mg/kg per day): 391.91%
- Percent increase in VEGF with respect to the control group (lung tissue, Group 7, inhalation 0.2 mg/kg per day): 200.18%
- Percent increase in VEGF with respect to the control group (lung tissue, Group 8, inhalation 0.4 mg/kg per day): 145.64%
- Percent increase in VEGF with respect to the control group (nasal cavity tissue, Group 1, oral 10 mg/kg per day): 1,293.11%
- Percent increase in VEGF with respect to the control group (nasal cavity tissue, Group 2, oral 40 mg/kg per day): 969.58%
- Percent increase in VEGF with respect to the control group (nasal cavity tissue, Group 3, oral 80 mg/kg per day): 716.62%
- Percent increase in VEGF with respect to the control group (nasal cavity tissue, Group 4, oral 100 mg/kg per day): 576.80%
- Percent increase in VEGF with respect to the control group (nasal cavity tissue, Group 5, inhalation 0.05 mg/kg per day): 1,727.98%
- Percent increase in VEGF with respect to the control group (nasal cavity tissue, Group 6, inhalation 0.1 mg/kg per day): 1,010.56%
- Percent increase in VEGF with respect to the control group (nasal cavity tissue, Group 7, inhalation 0.2 mg/kg per day): 323.15%
- Percent increase in VEGF with respect to the control group (nasal cavity tissue, Group 8, inhalation 0.4 mg/kg per day): 145.68%
- Percent increase in VEGF with respect to the control group (pharyngeal tissue, Group 1, oral 10 mg/kg per day): 1,789.12%
- Percent increase in VEGF with respect to the control group (pharyngeal tissue, Group 2, oral 40 mg/kg per day): 1,256.67%
- Percent increase in VEGF with respect to the control group (pharyngeal tissue, Group 3, oral 80 mg/kg per day): 998.56%
- Percent increase in VEGF with respect to the control group (pharyngeal tissue, Group 4, oral 100 mg/kg per day): 567.45%
- Percent increase in VEGF with respect to the control group (pharyngeal tissue, Group 5, inhalation 0.05 mg/kg per day): 1,858.37%
- Percent increase in VEGF with respect to the control group (pharyngeal tissue, Group 6, inhalation 0.1 mg/kg per day): 1,198.56%
- Percent increase in VEGF with respect to the control group (pharyngeal tissue, Group 7, inhalation 0.2 mg/kg per day): 654.32%
- Percent increase in VEGF with respect to the control group (pharyngeal tissue, Group 8, inhalation 0.4 mg/kg per day): 121.34%

— patent US20170290774A1, “NEUROKININ-1 RECEPTOR ANTAGONIST COMPOSITION FOR TREATMENT OF DISEASES AND CONDITIONS OF THE RESPIRATORY TRACT” (PLUS VITECH, S.L., priority 2014, published 2017)
